In patent US10144715B2, “Piperazine derivatives as liver X receptor modulators” (priority 2014, dated 2018):
Where two headings read alike, the source gives them in different places.

Assays:
[1] = target: Gal4 DNA binding domain fused to the LBD of LXRα in HEK293 cells (Homo sapiens (Human), UniProt Q13133); assay: LXR luciferase transcriptional reporter gene assay, agonist mode, LXRα; type: cell-based; conditions: for EC50: read-out: Cell LXRα EC50
LXR α LBD protein = LXR α LBD protein (Homo sapiens (Human), UniProt Q13133); assay: Human LXRα coactivator recruitment FRET assay, agonist mode; type: biochemical
LXR α LBD protein, sequence (Q13133 209-447): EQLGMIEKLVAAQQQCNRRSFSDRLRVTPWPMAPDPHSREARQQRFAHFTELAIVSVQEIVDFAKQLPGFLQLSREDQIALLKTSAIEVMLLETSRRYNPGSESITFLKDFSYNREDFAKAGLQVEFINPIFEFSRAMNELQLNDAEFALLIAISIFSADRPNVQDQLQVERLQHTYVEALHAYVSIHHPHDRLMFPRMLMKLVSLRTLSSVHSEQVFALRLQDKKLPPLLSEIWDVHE
Experimental: Two μL of the DMSO solutions were transferred to the plate and 38 μL of 10 nM LXRα-LBD or LXRβ-LBD (2×) were added immediately to the wells. The plate was shaken for 5 min at rt on an orbital micro shaker (DPC MicroMix® 5), after which 40 μL of 200 nM fluorescein-SRC2-3 peptide and 20 nM Terbium-anti-GST-antibody (Cat# PV3550, Life Technologies, Grand Island, N.Y.) solution (4×) were added to all. The plate was sealed and shaken for 2 min at rt, and incubated at rt for 2 h without agitation. […] The delay and window times were set at 100 and 200 microseconds, respectively. […] The percent control vs. compound concentration data were fit into a four-parameter model, and EC50 values were calculated from the fit as the concentrations corresponding to the inflection points on the concentration-response curves.

[2] = Biological Test Example 3, agonist mode

Gal4 DNA binding domain fused to the LBD of LXRα in HEK293 cells, sequence (Q13133 209-447): as above

Row | Compound | Cell LXRα efficacy [1] | EC50 ([1]; agonist mode) [µM] | EC50 (LXR α LBD protein; agonist mode) [µM] | FRET LXRα efficacy (LXR α LBD protein; agonist mode) [%] | EC50 [1] [µM] | EC50 ([1]; Biological Test Example 2, agonist mode) [µM] | EC50 (LXR α LBD protein; [2]) [µM] | FRET LXRα efficacy (LXR α LBD protein; [2]) [%]
1 | CC(C)[C@@H]1CN(c2ccc(C#N)c(S(C)(=O)=O)c2)CCN1c1ccc(C(F)(F)F)cn1 [7-37, (R)-4-(3-isopropyl-4-(5-(trifluoromethyl)pyridin-2-yl)piperazin-1-yl)-2-(methylsulfonyl)benzonitrile] | 1702 (96) % | 1.7 | 2.64 | 220 |  |  |  | 
2 | CC(C)[C@@H]1CN(c2ccc(C(N)=O)c(S(C)(=O)=O)c2)CCN1C(=O)OC(C)(C)C [4-1, tert-butyl (R)-4-(4-carbamoyl-3-(methylsulfonyl)phenyl)-2-isopropylpiperazine-1-carboxylate] | 15676 (21) % |  | 14.5 | 68 | 15.7 |  |  | 
3 | CS(=O)(=O)c1cccc(N2CCN(C[C@H]3CC[C@@H](C(F)F)CC3)[C@H](c3ccccc3)C2)c1 (single isomer, unassigned) [48-16] | 2437 (10) % |  | 2.45 | 17 | 2.44 |  |  | 
4 | CS(=O)(=O)c1cccc(N2CCN(Cc3ccc(C(F)(F)F)c(Cl)c3)[C@H](Cc3ccccc3)C2)c1 [46-33, (R)-2-benzyl-1-(3-chloro-4-(trifluoromethyl)benzyl)-4-(3-(methylsulfonyl)phenyl)piperazine] | 2354 (44) % | 2.35 | 2.54 | 37 |  |  |  | 
5 | CS(=O)(=O)c1cccc(N2CCN(CC3CCN(CC(F)(F)F)CC3)[C@H](c3ccccc3)C2)c1 (single isomer, unassigned) [48-51] |  |  |  |  |  | > 20 | 9.4 | 37
6 | Cc1ccc(CN2CCN(c3cccc(S(C)(=O)=O)c3)CC2c2ccccc2)cn1 (stereo not drawn) [46-40, 1-((6-methylpyridin-3-yl)methyl)-4-(3-(methylsulfonyl)phenyl)-2-phenylpiperazine] |  | > 20 | 4.12 | 38 |  |  |  | 
7 | CC(C)[C@@H]1CN(c2ccc(C#N)c(S(C)(=O)=O)c2)CCN1c1cc(C(F)(F)F)ccn1 [7-39, (R)-4-(3-isopropyl-4-(4-(trifluoromethyl)pyridin-2-yl)piperazin-1-yl)-2-(methylsulfonyl)benzonitrile] | 1502 (80) % | 1.5 | 1.43 | 191 |  |  |  | 
8 | COC(=O)[C@@H]1CN(c2cccc(S(C)(=O)=O)c2)CCN1C(=O)OC(C)(C)C [1-4, 1-(tert-butyl) 2-methyl (S)-4-(3-(methylsulfonyl)phenyl)piperazine-1,2-dicarboxylate] | 14195 (49) % | 14.2 | 13.5 | 67 |  |  |  | 
9 | CC(C)(C)OC(=O)N1CCN(c2cccc(S(C)(=O)=O)c2)C[C@@H]1c1ccccc1 [1-6, tert-butyl (S)-4-(3-(methylsulfonyl)phenyl)-2-phenylpiperazine-1-carboxylate] |  | > 20 | 8.39 | 14 |  |  |  | 
10 | COC(=O)c1ccc(N2CCN(C(=O)OC(C)(C)C)C(c3ccccc3)C2)cc1S(C)(=O)=O (stereo not drawn) [2-3, tert-butyl 4-(4-(methoxycarbonyl)-3-(methylsulfonyl)phenyl)-2-phenylpiperazine-1-carboxylate] |  | > 20 | 34.9 | 102 |  |  |  | 
11 | CS(=O)(=O)c1cccc(N2CCN(Cc3ccc(C(F)(F)F)nc3)C(c3ccc(F)cc3)C2)c1 (stereo not drawn) [46-51, 2-(4-fluorophenyl)-4-(3-(methylsulfonyl)phenyl)-1-((6-(trifluoromethyl)pyridin-3-yl)methyl)piperazine] | 3658 (17) % | 3.66 | 2.3 | 41 |  |  |  | 
12 | CC1(c2ccccc2)CN(c2cccc(S(C)(=O)=O)c2)CCN1Cc1ccc(C(F)(F)F)nc1 (stereo not drawn) [46-49, 2-methyl-4-(3-(methylsulfonyl)phenyl)-2-phenyl-1-((6-(trifluoromethyl)pyridin-3-yl)methyl)piperazine] | 3237 (12) % | 3.24 | 0.264 | 10 |  |  |  | 
13 | CS(=O)(=O)c1cccc(N2CCN(Cc3ccc(C(F)(F)F)nc3)C(c3ccc(Cl)cc3)C2)c1 (stereo not drawn) [46-54, 2-(4-chlorophenyl)-4-(3-(methylsulfonyl)phenyl)-1-((6-(trifluoromethyl)pyridin-3-yl)methyl)piperazine] |  | > 20 |  | 49 |  |  |  | 
14 | CS(=O)(=O)c1cccc(N2CCN(Cc3ccc(C(F)(F)F)c(Cl)c3)[C@@H](Cc3ccccc3)C2)c1 [Cpd No 45-1, (S)-2-benzyl-1-(3-chloro-4-(trifluoromethyl)benzyl)-4-(3-(methylsulfonyl)phenyl)piperazine] | 3618 (61) % |  |  | 39 | 3.62 |  |  | 
15 | CS(=O)(=O)c1cc(N2CCN(Cc3ccc(C(F)(F)F)c(Cl)c3)C(c3ccccc3)C2)ccc1CO (stereo not drawn) [47-4, (4-(4-(3-chloro-4-(trifluoromethyl)benzyl)-3-phenylpiperazin-1-yl)-2-(methylsulfonyl)phenyl)methanol] | 914 (96) % | 0.914 | 0.224 | 109 |  |  |  | 
16 | CC(C)[C@@H]1CN(c2ccc(C(F)(F)F)c(S(C)(=O)=O)c2)CCN1C(=O)OC(C)(C)C [Cpd No 3-2, tert-butyl (R)-2-isopropyl-4-(3-(methylsulfonyl)-4-(trifluoromethyl)phenyl)piperazine-1-carboxylate] | 14412 (19) % | 14.4 | 12 | 54 |  |  |  | 
17 | CS(=O)(=O)c1cc(N2CCN(Cc3ccc(C(F)(F)F)nc3)C(c3ccccc3)C2)ccc1C(N)=O (stereo not drawn) [46-58, 2-(methylsulfonyl)-4-(3-phenyl-4-((6-(trifluoromethyl)pyridin-3-yl)methyl)piperazin-1-yl)benzamide] | 6986 (8) % | 6.99 | > 50 |  |  |  |  | 
18 | COC(=O)c1cnc(N2CCN(c3cccc(S(C)(=O)=O)c3)C[C@H]2C(C)C)nc1 [7-9, methyl (R)-2-(2-isopropyl-4-(3-(methylsulfonyl)phenyl)piperazin-1-yl)pyrimidine-5-carboxylate] | 3532 (36) % | 3.53 | 0.48 | 57 |  |  |  | 
19 | CS(=O)(=O)c1cccc(N2CCN(Cc3ccc(C(F)(F)F)nc3)C(c3ccccc3Br)C2)c1 (stereo not drawn) [46-60, 2-(2-bromophenyl)-4-(3-(methylsulfonyl)phenyl)-1-((6-(trifluoromethyl)pyridin-3-yl)methyl)piperazine] | 4383 (33) % | 4.38 |  | 39 |  |  |  | 
20 | CS(=O)(=O)c1cc(N2CCN(Cc3ccc(C(F)(F)F)nc3)C(c3ccccc3)C2)ccc1F (stereo not drawn) [46-52, 4-(4-fluoro-3-(methylsulfonyl)phenyl)-2-phenyl-1-((6-(trifluoromethyl)pyridin-3-yl)methyl)piperazine] | 11699 (17) % | 11.7 | 5.2 | 20 |  |  |  | 
21 | CC(C)[C@@H]1CN(c2ccc(C#N)c(S(C)(=O)=O)c2)CCN1C(=O)OC(C)(C)C [Cpd No 3-1, tert-butyl (R)-4-(4-cyano-3-(methylsulfonyl)phenyl)-2-isopropylpiperazine-1-carboxylate] | 12810 (20) % | 12.8 | 18 | 76 |  |  |  | 
